Target: VHL (Homo sapiens (Human), UniProt P40337)
Experiment: VHL fluorescence polarization (FP) competition assay
Assay type: binding

SMILES	IC50 (0.25% in DMSO)	IC50 (1% in DMSO)	IC50 (10% in DMSO)
Cc1ncsc1-c1ccc(CNC(=O)[C@@H]2C[C@@H](O)CN2C(=O)[C@H](C(C)C)N2Cc3c(F)cccc3C2=O)cc1 [Example 33, (2S,4R)-1-((S)-2-(4-fluoro-1-oxoisoindolin-2-yl)-3-methylbutanoyl)-4-hydroxy-N-(4-(4-methylthiazol-5-yl)benzyl)pyrrolidine-2-carboxamide]	1.94 µM	0.539 µM	1.08 µM
Cc1ncsc1-c1ccc(CNC(=O)[C@@H]2C[C@@H](O)CN2C(=O)[C@H](C(C)C)N2Cc3cc(C#N)ccc3C2=O)cc1 [Example 34, (2S,4R)-1-((S)-2-(5-cyano-1-oxoisoindolin-2-yl)-3-methylbutanoyl)-4-hydroxy-N-(4-(4-methylthiazol-5-yl)benzyl)pyrrolidine-2-carboxamide]	2.12 µM	0.66 µM	1.18 µM
Cc1ncsc1-c1ccc(CNC(=O)[C@@H]2C[C@@H](O)CN2C(=O)[C@H](C(C)C)N2Cc3c(C#N)cccc3C2=O)cc1 [Example 35, (2S,4R)-1-((S)-2-(4-cyano-1-oxoisoindolin-2-yl)-3-methylbutanoyl)-4-hydroxy-N-(4-(4-methylthiazol-5-yl)benzyl)pyrrolidine-2-carboxamide]	2.05 µM	0.509 µM	1.3 µM
Cc1ncsc1-c1ccc(CNC(=O)[C@@H]2C[C@@H](O)CN2C(=O)[C@@H](NC(=O)C2CCCCC2)C(C)(C)C)cc1 [Example 36, (2S,4R)-1-((S)-2-(cyclohexanecarboxamido)-3,3-dimethylbutanoyl)-4-hydroxy-N-(4-(4-methylthiazol-5-yl)benzyl)pyrrolidine-2-carboxamide]	6.54 µM	3.55 µM	5.48 µM
CSC[C@@H](C(=O)N1C[C@H](O)C[C@H]1C(=O)NCc1ccc(-c2scnc2C)cc1)N1Cc2ccccc2C1=O [Example 37, (2S,4R)-4-hydroxy-N-(4-(4-methylthiazol-5-yl)benzyl)-1-((R)-3-(methylthio)-2-(1-oxoisoindolin-2-yl)propanoyl)pyrrolidine-2-carboxamide]	1.9 µM	20.6 µM	7.41 µM
Cc1ncsc1-c1ccc(CNC(=O)[C@@H]2C[C@@H](O)CN2C(=O)[C@H](C2CCCC2)N2Cc3ccccc3C2=O)cc1 [Example 38, (2S,4R)-1-((S)-2-cyclopentyl-2-(1-oxoisoindolin-2-yl)acetyl)-4-hydroxy-N-(4-(4-methylthiazol-5-yl)benzyl)pyrrolidine-2-carboxamide]	2.19 µM	0.758 µM	1.09 µM
Cc1ncsc1-c1ccc([C@H](C)NC(=O)[C@@H]2C[C@@H](O)CN2C(=O)[C@H](C(C)C)N2Cc3ccccc3C2=O)cc1 [Example 39, (2S,4R)-4-hydroxy-N-[(1S)-1-[4-(4-methyl-1,3-thiazol-5-yl)phenyl]ethyl]-1-[(2S)-3-methyl-2-(1-oxo-2,3-dihydro-1H-isoindol-2-yl)butanoyl]pyrrolidine-2-carboxamide]	0.958 µM	0.699 µM	1.63 µM
CC(C)[C@@H](C(=O)N1C[C@H](O)C[C@H]1C(=O)NCc1ccc(-c2ccccc2)cc1)N1Cc2ccccc2C1=O [Example 40, (2S,4R)—N-(biphenyl-4-ylmethyl)-4-hydroxy-1-((S)-3-methyl-2-(1-oxoisoindolin-2-yl)butanoyl)pyrrolidine-2-carboxamide]	17.5 µM	2.36 µM	3.92 µM
CC(C)[C@@H](C(=O)N1C[C@H](O)C[C@H]1C(=O)NCc1ccc(-c2ccn[nH]2)cc1)N1Cc2ccccc2C1=O [Example 41, (2S,4R)—N-(4-(1H-pyrazol-5-yl)benzyl)-4-hydroxy-1-((S)-3-methyl-2-(1-oxoisoindolin-2-yl)butanoyl)pyrrolidine-2-carboxamide]	7.28 µM	1.19 µM	3.05 µM
Cc1ncsc1-c1ccc(CNC(=O)[C@@H]2C[C@@H](O)CN2C(=O)[C@H](C(C)C)N2Cc3cccc(Br)c3C2=O)cc1 [Example 42, (2S,4R)-1-((S)-2-(7-bromo-1-oxoisoindolin-2-yl)-3-methylbutanoyl)-4-hydroxy-N-(4-(4-methylthiazol-5-yl)benzyl)pyrrolidine-2-carboxamide]		4.95 µM	15.7 µM
Cc1ncsc1-c1ccc(CNC(=O)[C@@H]2C[C@@H](O)CN2C(=O)[C@@H](NC(=O)c2ccc(C#N)cc2)C(C)(C)C)cc1 [Example 43, (2S,4R)-1-((S)-2-(4-cyanobenzamido)-3,3-dimethylbutanoyl)-4-hydroxy-N-(4-(4-methylthiazol-5-yl)benzyl)pyrrolidine-2-carboxamide]		0.906 µM	1.2 µM
Cc1ncsc1-c1ccc(CNC(=O)[C@@H]2C[C@@H](O)CN2C(=O)[C@@H](NC(=O)CCc2ccccc2)C(C)(C)C)cc1 [Example 44, (2S,4R)-1-((S)-3,3-dimethyl-2-(3-phenylpropanamido)butanoyl)-4-hydroxy-N-(4-(4-methylthiazol-5-yl)benzyl)pyrrolidine-2-carboxamide]		0.385 µM	0.465 µM
Cc1ncsc1-c1ccc(CNC(=O)[C@@H]2C[C@@H](O)CN2C(=O)[C@H]([C@H](C)O)N2Cc3ccccc3C2=O)cc1 [Example 45, (2S,4R)-4-hydroxy-1-((2S,3S)-3-hydroxy-2-(1-oxoisoindolin-2-yl)butanoyl)-N-(4-(4-methylthiazol-5-yl)benzyl)pyrrolidine-2-carboxamide]		~32 µM	472 µM
Cc1ncsc1-c1ccc(CNC(=O)[C@@H]2C[C@@H](O)CN2C(=O)C(C)(C)N2Cc3ccccc3C2=O)cc1 [Example 46, (2S,4R)-4-hydroxy-1-(2-methyl-2-(1-oxoisoindolin-2-yl)propanoyl)-N-(4-(4-methylthiazol-5-yl)benzyl)pyrrolidine-2-carboxamide]		19400 µM	5100 µM
Cc1ncsc1-c1ccc(CNC(=O)[C@@H]2C[C@@H](O)CN2C(=O)[C@H](C(C)C)N2Cc3cccc(C#N)c3C2=O)cc1 [Example 47, (2S,4R)-1-((S)-2-(7-cyano-1-oxoisoindolin-2-yl)-3-methylbutanoyl)-4-hydroxy-N-(4-(4-methylthiazol-5-yl)benzyl)pyrrolidine-2-carboxamide]		0.178 µM	0.339 µM
Cc1ncsc1-c1ccc(CNC(=O)[C@@H]2C[C@@H](O)CN2C(=O)[C@H](CS)N2Cc3ccccc3C2=O)cc1 [Example 48, (2S,4R)-4-hydroxy-1-((R)-3-mercapto-2-(1-oxoisoindolin-2-yl)propanoyl)-N-(4-(4-methylthiazol-5-yl)benzyl)pyrrolidine-2-carboxamide]		3.77 µM	4.7 µM
Cc1ncsc1-c1ccc(CNC(=O)[C@@H]2C[C@@H](O)CN2C(=O)C2(N3Cc4ccccc4C3=O)CC2)cc1 [Example 49, (2S,4R)-4-hydroxy-N-(4-(4-methylthiazol-5-yl)benzyl)-1-(1-(1-oxoisoindolin-2-yl)cyclopropanecarbonyl)pyrrolidine-2-carboxamide]			244 µM
Cc1ncsc1-c1ccc(CNC(=O)[C@@H]2C[C@@H](O)CN2C(=O)C2(N3Cc4ccccc4C3=O)CCCC2)cc1 [Example 50, (2S,4R)-4-hydroxy-N-(4-(4-methylthiazol-5-yl)benzyl)-1-(1-(1-oxoisoindolin-2-yl)cyclopentanecarbonyl)pyrrolidine-2-carboxamide]			235 µM
